# How the values were obtained:
# [1] = biological target: T1, human adenosine A1 receptor (Homo sapiens, UniProt P30542); experiment: Inhibition binding assay, human adenosine A1 receptor membranes, [3H]DPCPX; details: 1 nM [3H]DPCPX, 25° C., 1 h; IC50 converted to Ki with Cheng-Prusoff; read-out: A1 pKi (converted)
# T1 construct: expressed in transfected cells; host or cells: HEK293 cells infected with BacMam (the same paragraph also labels the preparation CHO-hA1)
# T1 sequence (P30542 1-326): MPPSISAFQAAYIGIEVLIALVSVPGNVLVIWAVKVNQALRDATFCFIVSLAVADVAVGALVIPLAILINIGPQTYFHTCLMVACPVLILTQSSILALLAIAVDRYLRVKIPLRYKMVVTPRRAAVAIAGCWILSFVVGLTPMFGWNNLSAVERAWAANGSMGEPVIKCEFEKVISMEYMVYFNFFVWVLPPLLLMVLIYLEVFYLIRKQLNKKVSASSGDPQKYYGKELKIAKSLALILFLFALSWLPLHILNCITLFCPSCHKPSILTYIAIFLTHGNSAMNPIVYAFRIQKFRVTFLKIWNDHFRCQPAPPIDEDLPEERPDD
# Experimental: (§1) Inhibition binding assays were performed using 0.2 μg of membranes prepared from HEK293 cells infected with BacMam human adenosine A2A receptor or 1.4 μg of membranes prepared from HEK293 cells infected with BacMam human adenosine A1 receptor. Membranes were incubated in 50 mM Tris-HCl (HEK293-hA2A; pH 7.4) or 50 mM Tris-HCl, 100 mM NaCl, 10 mM MgCl2 (CHO-hA1; pH 7.4) in the presence of varying concentrations of test compound and 1 nM [^3H]ZM241385 (HEK293-hA2A) or [^3H]DPCPX (CHO-hA1) at 25° C. for 1 h. The assay was then terminated by rapid filtration onto GF/B grade Unifilter plates using a TomTec cell harvester, followed by 5×0.5 ml washes with ddH2O. Nonspecific binding was defined in the presence of 1 μM CGS15943 (HEK293-hA2A) or 1 μM DPCPX (CHO-hA1). Bound radioactivity was determined by liquid scintillation counting and inhibition curves were analysed using a four-parameter logistic equation. IC50 values were converted to Ki values with the Cheng-Prusoff equation using a KD value derived from saturation binding studies.
# [2] = biological target: T2, human adenosine A2A receptor (Homo sapiens, UniProt P29274); experiment: Inhibition binding assay, human adenosine A2A receptor membranes, [3H]ZM241385; details: 1 nM [3H]ZM241385, HEK293-hA2A membranes, 25° C., 1 h; IC50 converted to Ki with Cheng-Prusoff; read-out: A2A pKi (converted)
# T2 construct: expressed in transfected cells; host or cells: HEK293 cells infected with BacMam
# T2 sequence (P29274 whole entry): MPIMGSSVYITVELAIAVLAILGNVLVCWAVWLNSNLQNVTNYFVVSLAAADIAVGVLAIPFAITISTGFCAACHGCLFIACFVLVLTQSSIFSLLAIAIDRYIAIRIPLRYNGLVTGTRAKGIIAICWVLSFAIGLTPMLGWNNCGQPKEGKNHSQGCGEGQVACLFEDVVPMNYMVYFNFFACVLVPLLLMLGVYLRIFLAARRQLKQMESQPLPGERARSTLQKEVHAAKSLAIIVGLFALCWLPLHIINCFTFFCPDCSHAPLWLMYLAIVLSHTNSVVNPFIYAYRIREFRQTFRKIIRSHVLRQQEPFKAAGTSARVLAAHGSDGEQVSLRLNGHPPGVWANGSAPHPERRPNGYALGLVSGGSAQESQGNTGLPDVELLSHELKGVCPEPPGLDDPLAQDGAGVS
# Experimental: as §1
SMILES,Ki [1] [nM],Ki [2] [nM]
"Cc1cc(-c2c(-c3ccccc3)nc(N)n3c(=O)n(Cc4cccc(=O)[nH]4)nc23)cc(C)n1 [Example 1-9, 5-amino-8-(2,6-dimethyl-4-pyridyl)-2-[(6-oxo-1H-pyridin-2-yl)methyl]-7-phenyl-[1,2,4]triazolo[4,3-c]pyrimidin-3-one]",126,12.6
"Cc1cc(-c2c(-c3ccccc3)nc(N)n3c(=O)n(CC4CCCOC4)nc23)cc(C)n1 (single isomer, unassigned) [Example 2-81-iso-1, 5-amino-8-(2,6-dimethyl-4-pyridyl)-7-phenyl-2-(tetrahydropyran-3-ylmethyl)-[1,2,4]triazolo[4,3-c]pyrimidin-3-one]",158,2
"COc1cc(C)nc(Cn2nc3c(-c4cc(C)nc(C)c4)c(-c4ccccc4)nc(N)n3c2=O)c1 [Example 1-29, 5-amino-8-(2,6-dimethyl-4-pyridyl)-2-[(4-methoxy-6-methyl-2-pyridyl)methyl]-7-phenyl-[1,2,4]triazolo[4,3-c]pyrimidin-3-one]",12.6,0.501
"Cc1cc(-c2c(-c3ccccc3)nc(N)n3c(=O)n(CC4CCCOC4)nc23)cc(C)n1 (single isomer, unassigned) [Example 2-81-iso-2, 5-amino-8-(2,6-dimethyl-4-pyridyl)-7-phenyl-2-(tetrahydropyran-3-ylmethyl)-[1,2,4]triazolo[4,3-c]pyrimidin-3-one]",126,1
"Cc1cc(-c2c(-c3cccnc3)nc(N)n3c(=O)n(CCC(F)(F)F)nc23)cc(C)n1 [Example 2-39, 5-amino-8-(2,6-dimethyl-4-pyridyl)-7-(3-pyridyl)-2-(3,3,3-trifluoropropyl)-[1,2,4]triazolo[4,3-c]pyrimidin-3-one]",> 3980,50.1
"Cc1cc(-c2c(-c3ccccc3)nc(N)n3c(=O)n(C[C@H]4CN(C(=O)OC(C)(C)C)CCO4)nc23)cc(C)n1 [Example 2-65, tert-butyl (R)-2-((5-amino-8-(2,6-dimethylpyridin-4-yl)-3-oxo-7-phenyl-[1,2,4]triazolo[4,3-c]pyrimidin-2(3H)-yl)methyl)morpholine-4-carboxylate]",501,12.6
"Cc1cc(-c2c(-c3ccccc3)nc(N)n3c(=O)n(Cc4ccccc4SC(F)F)nc23)cc(C)n1 [Example 1-16, 5-amino-2-[[2-(difluoromethylsulfanyl)phenyl]methyl]-8-(2,6-dimethyl-4-pyridyl)-7-phenyl-[1,2,4]triazolo[4,3-c]pyrimidin-3-one]",1,0.251
"Cc1cc(-c2c(-c3ccccc3)nc(N)n3c(=O)n(Cc4ccc(F)cn4)nc23)cc(Cl)n1 [Example 1-76, 5-amino-8-(2-chloro-6-methyl-4-pyridyl)-2-[(5-fluoro-2-pyridyl)methyl]-7-phenyl-[1,2,4]triazolo[4,3-c]pyrimidin-3-one]",79.4,0.126
"Cc1cc(-c2c(-c3ccccc3)nc(N)n3c(=O)n(CC(C)C)nc23)cc(C)n1 [Example 2-21, 5-amino-8-(2,6-dimethyl-4-pyridyl)-2-isobutyl-7-phenyl-[1,2,4]triazolo[4,3-c]pyrimidin-3-one]",1000,2.51
"COc1cc(-c2c(-c3ccc(F)cc3)nc(N)n3c(=O)n(CCC(F)(F)F)nc23)cc(CO)n1 [Example 2-47, 5-amino-7-(4-fluorophenyl)-8-[2-(hydroxymethyl)-6-methoxy-4-pyridyl]-2-(3,3,3-trifluoropropyl)-[1,2,4]triazolo[4,3-c]pyrimidin-3-one]",> 3980,1.58
"Cc1cc(-c2c(-c3ccccc3)nc(N)n3c(=O)n(CCN[C@@H](C)c4cccc(C)n4)nc23)cc(C)n1 [Example 1-94, 5-amino-8-(2,6-dimethyl-4-pyridyl)-2-[2-[[(1S)-1-(6-methyl-2-pyridyl)ethyl]amino]ethyl]-7-phenyl-[1,2,4]triazolo[4,3-c]pyrimidin-3-one]",398,10
"Cc1cc(-c2c(-c3ccccc3)nc(N)n3c(=O)n(C(CC4COCCN4)c4ccccc4)nc23)cc(C)n1 (stereo not shown) [Example 1-103, 5-amino-8-(2,6-dimethyl-4-pyridyl)-2-(2-morpholin-3-yl-1-phenyl-ethyl)-7-phenyl-[1,2,4]triazolo[4,3-c]pyrimidin-3-one]",1000,15.8
"Cc1cc(-c2c(-c3ccccc3)nc(N)n3c(=O)n(C(CN)Cc4ccc(F)cc4F)nc23)cc(C)n1 (stereo not shown) [Example 1-100, 5-amino-2-[1-(aminomethyl)-2-(2,4-difluorophenyl)ethyl]-8-(2,6-dimethyl-4-pyridyl)-7-phenyl-[1,2,4]triazolo[4,3-c]pyrimidin-3-one]",316,158
"Cc1cc(-c2c(-c3ccccc3)nc(N)n3c(=O)n(C[C@H]4COCCN4C)nc23)cc(C)n1 [Example 2-77, 5-amino-8-(2,6-dimethyl-4-pyridyl)-2-[[(3S)-4-methylmorpholin-3-yl]methyl]-7-phenyl-[1,2,4]triazolo[4,3-c]pyrimidin-3-one]",398,3.16
"Nc1nc(-c2ccccc2)c(-c2cc(Cl)nc(CO)c2)c2nn(CCC(F)(F)F)c(=O)n12 [Example 2-45, 5-amino-8-[2-chloro-6-(hydroxymethyl)-4-pyridyl]-7-phenyl-2-(3,3,3-trifluoropropyl)-[1,2,4]triazolo[4,3-c]pyrimidin-3-one]",316,0.251
"Cc1cc(-c2c(-c3ccccc3)nc(N)n3c(=O)n(CC4CCCCO4)nc23)cc(C)n1 (stereo not shown) [Example 2-82, 5-amino-8-(2,6-dimethyl-4-pyridyl)-7-phenyl-2-(tetrahydropyran-2-ylmethyl)-[1,2,4]triazolo[4,3-c]pyrimidin-3-one]",251,0.316
"Cc1cc(-c2c(-c3ccccc3)nc(N)n3c(=O)n(Cc4cccc(F)c4Cl)nc23)cc(C)n1 [Example 1-21, 5-amino-2-[(2-chloro-3-fluoro-phenyl)methyl]-8-(2,6-dimethyl-4-pyridyl)-7-phenyl-[1,2,4]triazolo[4,3-c]pyrimidin-3-one]",10,0.501
"Cc1cc(-c2c(-c3ccccc3)nc(N)n3c(=O)n(C[C@@H]4COCCN4)nc23)cc(C)n1 [Example 2-79, (R)-5-amino-8-(2,6-dimethylpyridin-4-yl)-2-(morpholin-3-ylmethyl)-7-phenyl-[1,2,4]triazolo[4,3-c]pyrimidin-3(2H)-one]",794,15.8
"Cc1cc(-c2c(-c3ccc(F)cc3)nc(N)n3c(=O)n(CCN4CCCCC4)nc23)cc(Cl)n1 [Example 2-105, 5-amino-8-(2-chloro-6-methyl-4-pyridyl)-7-(4-fluorophenyl)-2-[2-(1-piperidyl)ethyl]-[1,2,4]triazolo[4,3-c]pyrimidin-3-one]",> 2510,31.6
"Cc1cc(-c2c(-c3ccccc3)nc(N)n3c(=O)n(C(C)c4cc(F)ccc4F)nc23)cc(C)n1 (stereo not shown) [Example 1-15, 5-amino-2-[1-(2,5-difluorophenyl)ethyl]-8-(2,6-dimethyl-4-pyridyl)-7-phenyl-[1,2,4]triazolo[4,3-c]pyrimidin-3-one]",79.4,1.58

# From patent US12528815B2, “5-amino-8-(4-pyridyl)-[1,2,4]triazolo[4,3-c]pyrimidin-3-one compounds for use against cancer” (Nxera Pharma UK Limited, priority 2020, dated 2026)
